According to US20160120979A1, “METHOD OF APPLYING A COMPOSITION AND PHARMACEUTICAL COMPOSITION WITH A REGIMEN OF ADMINISTERING IT” (priority 2013, published 2016):
Converted amounts (≈) assume the structure as drawn. Like-named read-outs stand apart in the source and are kept apart here.

Tests used:
[1] = test system: MU 50 multi-resistant bacteria; test: Experiment 7: growth of MU50 after pulsed 400 nm photo-activation of antibiotics; assay type: cell-based, Staphylococcus aureus
Protocol: (§1) In Experiments 7 to 9 the effect of some exemplary photo-activated antibiotics is tested on two different multi resistant bacterial strains:
In Experiment 7 MU 50 multi-resistant bacteria as described above for Experiments 1 to 3 were tested.
(§2) G→Pulse ON 5 ms energy 0.05 J, OFF 45 ms during 10 minutes
(§3) The following experimental procedure are the same for experiments 7, 8 and 9: The bacterial cells were grown in Mueller Hinton Broth in the presence of an antibiotic at a concentration according to the table below until they reached turbidity of 1 according to the McFarland Standard (=3×10^8 bacteria/ml):
(§4) For each antibiotic two patterns of pulsed exposure for photo-activation were applied and a control without exposure to radiation. For example in experiment 7 and 8, pulse ON 10 ms energy 0.1 J, OFF 90 ms during 10 minutes and pulse ON 5 ms energy 0.05 J, OFF 45 ms i.e. in both treatments a 10% ON and a 90% OFF pattern and both for a duration of 10 minutes.
(§5) Incubation for 2 to up 36 hours at 37° C. until time=t2
(§6) At time=t2 one of the antibiotics is added to obtain the same concentration of antibiotic as during the original growth phase prior to time t1=0 as listed in the table above.
(§7) Incubation for further 2 to 4 hours at 37° C. in the presence of antibiotic until time=t3.
(§8) The absorbance value correlates to the colloidal effect and the number of bacteria in the sample.
(§9) These tables below list for each bacterial sample the difference in absorption values representing the difference in the number of bacteria present in each sample by subtracting the absorption values at time t4, which is the last measurement of the growth curve presented in FIGS. 3 to 5 from the last absorption value before the treatment with light at time t3. The values of A and G represent the effect of the treatment of the bacterial samples with two different light patterns for activation of the antibiotic as described above. The values of D correspond to the control samples without photo-activation of the antibiotic: […]

[2] = test system: PA01 Pseudamonas aeruginosa MultiR genetically modified bacteria; test: Experiment 8: growth of PA01 after pulsed 400 nm photo-activation of antibiotics; assay type: cell-based; conditions: antibiotic concentration per the 12th table
Protocol: as §1
(§10) In Experiment 8 and 9 PA01 Pseudamonas aeruginosa MultiR genetically modified bacteria were tested. This PA01 strain is genetically modified with a quinolone pump and conferring resistance to antibiotics of the quinolone group of antibiotics.
as §2, §3, §4, §5, §6, §7, §8, §9

[3] = test system: PA01 Pseudamonas aeruginosa MultiR genetically modified bacteria; test: Experiment 9: growth of PA01 after pulsed 400 nm photo-activation, shorter pulses; assay type: cell-based; conditions: antibiotic concentration per the 13th table
Protocol: as §1, §10
A→Pulse ON 3 ms energy 0.03 J, OFF 27 ms during 10 minutes
G→Pulse ON 1 ms energy 0.01 J, OFF 9 ms during 10 minutes
as §3, §4, §5, §6, §7, §8, §9

[4] = test system: Acinetobacter; assay type: cell-based; conditions: for D Acinetobacter (irradiation), replication, second treatment / C: Acinetobacter (no irradiation), replication, second treatment: remaining bacteria of experiment 12 proliferated and treated again
Protocol: (§11) 15′000′000 multi-resistant bacteriae (0.050 ml of a McFarland of 1) were put on 40 mm diameter petri dishes. The petri dishes comprised MH agar with or without antibiotic.
(§12) The LED power during 0.02 ms was measured to be 0.63 W on a Thorlabs power sensor with a surface area of 2.2×2.2 mm representing a power of 13 mW/cm^2.
(§13) After the irradiation treatment according to experiment 12, remaining bacteria were allowed to proliferate and then were subject to the treatment according to experiment 12 again in order to test for possible new resistances to the treatment. The values in the following table are designated as in experiment 12: […]

[5] = test system: Staphylococcus aureus MU500; assay type: cell-based
Protocol: as §11, §12, §13

[6] = test system: Staphylococcus aureus MU500; test: Experiment 12: replication on antibiotic agar after pulsed 400 nm irradiation; assay type: cell-based; conditions: 24 hours incubation; for E: Staphylococcus aureus MU500 (no irradiation), replication: antibiotic 10 mg/l in MH agar; for F: Staphylococcus aureus MU500 (irradiation), replication: antibiotic 10 mg/l, 400 nm LED pulses 0.02 ms, 1 kHz, 10 minutes
Protocol: as §11, §12

[7] = test system: Acinetobacter; test: as above; assay type: cell-based; conditions: 24 hours incubation; for C: Acinetobacter (no irradiation), replication: antibiotic 10 mg/l in MH agar; for D Acinetobacter (irradiation), replication: antibiotic 10 mg/l, 400 nm LED pulses 0.02 ms, 1 kHz, 10 minutes
Protocol: as §11
(§14) […]. The LED power during 0.02 ms was measured to be 0.63 W on a Thorlabs power sensor with a surface area of 2.2×2.2 mm representing a power of 13 mW/cm^2.

[8] = test system: Pseudomonas aeruginosa; test: as above; assay type: cell-based; conditions: 24 hours incubation; for A: Pseudomonas aeruginosa (no irradiation), replication: antibiotic 10 mg/l in MH agar; for B: Pseudomonas aeruginosa (irradiation), replication: antibiotic 10 mg/l, 400 nm LED pulses 0.02 ms, 1 kHz, 10 minutes
Protocol: as §11, §14

[9] = test system: MU50 multidrug-resistant Staphylococcus aureus strain (MRSA); test: Minimum inhibitory concentration (MIC) on MU50; assay type: cell-based
Text: For some of the experimental tests MU50 bacteria were used. MU50 is a multidrug-resistant Staphylococcus aureus strain (MRSA). MRSA are bacteria which have naturally evolved under antibiotic selection pressure and which are known to be resistant to antibiotics including penicillins (methicillin, dicloxacillin, nafcillin, oxacillin, etc.) and cephalosporins. MU50 is additionally resistant to macrolides, quinolones and aminoglycosides.
The minimum inhibitory concentration (MIC), which inhibits the visible growth of a microorganism after an overnight incubation was determined for the following antibiotics: […]

[10] = A: 400 nm LED pulse ON 10 ms energy 0.1 J, OFF 90 ms during 10 minutes
[11] = G: 400 nm LED pulse ON 5 ms energy 0.05 J, OFF 45 ms during 10 minutes
[12] = A: 400 nm LED pulse ON 3 ms energy 0.03 J, OFF 27 ms during 10 minutes
[13] = G: 400 nm LED pulse ON 1 ms energy 0.01 J, OFF 9 ms during 10 minutes
[14] = remaining bacteria of experiment 12 proliferated and treated again
[15] = Staphylococcus aureus, MRSA, overnight incubation, read-out: MIC
[16] = A: 400 nm LED pulse ON 10 ms energy 0.1 J, OFF 90 ms during 10 minutes, antibiotic concentration per the 11th table, approx. ten hours after t3
[17] = D: control no pulse, antibiotic concentration per the 11th table
[18] = G: 400 nm LED pulse ON 5 ms energy 0.05 J, OFF 45 ms during 10 minutes, antibiotic concentration per the 11th table
[19] = second treatment according to experiment 12

Compound | difference in absorption values (595-600 nm) between t4 and t3 [2, 10] | difference in absorption values (595-600 nm) between t4 and t3 ([2]; D: control no pulse) | difference in absorption values (595-600 nm) between t4 and t3 [2, 11] | E: Staphylococcus aureus MU500 (no irradiation), replication [6] | C: Acinetobacter (no irradiation), replication [7] | D Acinetobacter (irradiation), replication [7] | A: Pseudomonas aeruginosa (no irradiation), replication [8] | B: Pseudomonas aeruginosa (irradiation), replication [8] | MIC ([9]; overnight incubation) [µg/mL] | F: Staphylococcus aureus MU500 (irradiation), replication [6] | further results
CO[C@H]1/C=C/O[C@@]2(C)Oc3c(C)c(O)c4c(O)c(c(/C=N/N5CCN(C)CC5)c(O)c4c3C2=O)NC(=O)/C(C)=C\C=C\[C@H](C)[C@H](O)[C@@H](C)[C@@H](O)[C@@H](C)[C@H](OC(C)=O)[C@@H]1C [Rifampicin] | 0.0137 | 0.0679 | −0.0678 |  |  |  |  |  |  |  | difference in absorption values (595-600 nm) between t4 and t3 [1]: −0.0542; difference in absorption values (595-600 nm) between t4 and t3 ([1]; 10 min): −0.0914; difference in absorption values (595-600 nm) between t4 and t3 ([1]; 10 h): −0.1027; difference in absorption values (595-600 nm) between t4 and t3 [3, 12]: −0.0808; difference in absorption values (595-600 nm) between t4 and t3 ([3]; D: control no pulse): 0.0562; difference in absorption values (595-600 nm) between t4 and t3 [3, 13]: −0.0196
O=C(O)c1cn(C2CC2)c2cc(N3CCNCC3)c(F)cc2c1=O [Ciprofloxacin] |  |  |  | R (Bacteria can replicate after the treatment) | R (Bacteria can replicate after the treatment) | NR (No replication) | R (Bacteria can replicate after the treatment) | NR (No replication) |  |  | D Acinetobacter (irradiation), replication, second treatment [4]: NR (No replication); C: Acinetobacter (no irradiation), replication, second treatment [4]: R (Bacteria can replicate after the treatment); E: Staphylococcus aureus MU500 (no irradiation), replication, second treatment [5, 14]: R (Bacteria can replicate after the treatment); MIC [9, 15]: > 16 µg/mL
Gentamicin |  |  |  |  |  |  |  |  | >16 |  | 
CN[C@H](CC(C)C)C(=O)N[C@H]1C(=O)N[C@@H](CC(N)=O)C(=O)N[C@H]2C(=O)N[C@H]3C(=O)N[C@H](C(=O)N[C@H](C(=O)O)c4cc(O)cc(O)c4-c4cc3ccc4O)[C@H](O)c3ccc(c(Cl)c3)Oc3cc2cc(c3O[C@@H]2O[C@H](CO)[C@@H](O)[C@H](O)[C@H]2O[C@H]2C[C@](C)(N)[C@H](O)[C@H](C)O2)Oc2ccc(cc2Cl)[C@H]1O [Vancomycin] |  |  |  |  |  |  |  |  |  |  | MIC ([9]; Staphylococcus aureus, MRSA): 8 µg/mL (≈ 5.52 µM)
CC[C@H]1OC(=O)[C@H](C)[C@@H](O[C@H]2C[C@@](C)(OC)[C@@H](O)[C@H](C)O2)[C@H](C)[C@@H](O[C@@H]2O[C@H](C)C[C@H](N(C)C)[C@H]2O)[C@](C)(OC)C[C@@H](C)C(=O)[C@H](C)[C@@H](O)[C@]1(C)O [Clarithromycin] | 0.0106 | 0.1041 | −0.0396 | R (Bacteria can replicate after the treatment) | R (Bacteria can replicate after the treatment) | R (Bacteria can replicate after the treatment) | R (Bacteria can replicate after the treatment) | PR (Bacteria can replicate partially) |  | R (Bacteria can replicate after the treatment) | difference in absorption values (595-600 nm) between t4 and t3 [1]: 0.0956; difference in absorption values (595-600 nm) between t4 and t3 ([1]; 10 min): −0.1383; difference in absorption values (595-600 nm) between t4 and t3 ([1]; 10 h): −0.1249; difference in absorption values (595-600 nm) between t4 and t3 [3, 12]: −0.1708; difference in absorption values (595-600 nm) between t4 and t3 ([3]; D: control no pulse): −0.0024; difference in absorption values (595-600 nm) between t4 and t3 [3, 13]: −0.0994
Teicopanin |  |  |  |  |  |  |  |  | 8 |  | 
Penicillin |  |  |  |  |  |  |  |  | >8 |  | 
C[C@H]1c2cccc(O)c2C(=O)C2=C(O)[C@]3(O)C(=O)C(C(N)=O)=C(O)[C@@H](N(C)C)[C@@H]3[C@@H](O)[C@@H]21 [Doxycycline] | −0.0365 | 0.0735 | 0.0181 | R (Bacteria can replicate after the treatment) | R (Bacteria can replicate after the treatment) | NR (No replication) | R (Bacteria can replicate after the treatment) | NR (No replication) |  | NR (No replication) | difference in absorption values (595-600 nm) between t4 and t3 [1, 16]: −0.083; difference in absorption values (595-600 nm) between t4 and t3 [1, 17]: 0.0072; difference in absorption values (595-600 nm) between t4 and t3 [1, 18]: −0.0429; D Acinetobacter (irradiation), replication, second treatment [4]: NR (No replication); C: Acinetobacter (no irradiation), replication, second treatment [4]: R (Bacteria can replicate after the treatment); resistance to the treatment of the second generation resistant bacteria [4, 19]: no resistance to the treatment; F: Staphylococcus aureus MU500 (irradiation), replication, second treatment ([5]; remaining bacteria of experiment 12 proliferated and treated again, irradiation): NR (No replication); E: Staphylococcus aureus MU500 (no irradiation), replication, second treatment [5, 14]: R (Bacteria can replicate after the treatment); resistance to the treatment of the second generation resistant bacteria [5, 19]: no resistance to the treatment
Cc1onc(-c2ccccc2)c1C(=O)N[C@@H]1C(=O)N2[C@@H]1SC(C)(C)[C@@H]2C(=O)O [Oxacillin] |  |  |  |  |  |  |  |  |  |  | MIC [9, 15]: > 32 µg/mL
CCn1cc(C(=O)O)c(=O)c2cc(F)c(N3CCNCC3)cc21 [Norfloxacin] | −0.0491 | 0.0039 | −0.1879 | R (Bacteria can replicate after the treatment) | R (Bacteria can replicate after the treatment) | NR (No replication) | R (Bacteria can replicate after the treatment) | NR (No replication) |  | PR (Bacteria can replicate partially) | difference in absorption values (595-600 nm) between t4 and t3 [1, 16]: −0.1198; difference in absorption values (595-600 nm) between t4 and t3 [1, 17]: −0.1119; difference in absorption values (595-600 nm) between t4 and t3 [1, 18]: −0.0589
